Assay results: patent publication US7361668B2 (priority 2001, dated 2008)

How the values were obtained:
[1] = molecular target: T1, human recombinant m3 receptor (Homo sapiens, UniProt P20309); type: binding
T1 construct: expressed in transfected cells; host or cells: CHO cells (membrane preparation)

muscarinic = conditions: cited from earlier work

T1 sequence (P20309 whole entry): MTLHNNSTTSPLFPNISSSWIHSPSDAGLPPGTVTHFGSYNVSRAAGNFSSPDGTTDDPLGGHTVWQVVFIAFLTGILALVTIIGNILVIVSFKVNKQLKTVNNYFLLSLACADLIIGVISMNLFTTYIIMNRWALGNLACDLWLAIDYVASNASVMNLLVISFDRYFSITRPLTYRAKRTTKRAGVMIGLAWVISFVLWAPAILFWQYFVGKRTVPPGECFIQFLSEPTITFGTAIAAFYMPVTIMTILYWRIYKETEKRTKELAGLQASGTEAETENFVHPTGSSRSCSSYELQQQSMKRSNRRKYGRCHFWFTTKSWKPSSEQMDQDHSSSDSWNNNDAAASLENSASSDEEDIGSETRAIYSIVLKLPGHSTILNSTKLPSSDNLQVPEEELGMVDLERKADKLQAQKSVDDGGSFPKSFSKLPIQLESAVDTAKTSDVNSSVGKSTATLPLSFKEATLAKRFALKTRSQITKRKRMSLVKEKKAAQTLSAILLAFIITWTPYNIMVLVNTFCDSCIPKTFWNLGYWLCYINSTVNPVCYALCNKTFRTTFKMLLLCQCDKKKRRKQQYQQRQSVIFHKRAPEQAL

SMILES	affinity (in words) [1]	muscarinic anticholinergic activity (muscarinic)
CO[C@]1(C#CC(O)(c2ccccc2)C2CCCCCCC2)CN2CCC1CC2 (stereo partly drawn) [Compound 90, 1-cyclooctyl-3-[(3R)-3-methoxy-1-azabicyclo[2.2.2]oct-3-yl]-1-phenyl-2-propyn-1-ol]	High affinities	–
CO[C@]1(C#CC(O)(c2ccccc2)C2CC3CCC(C3)C2)CN2CCC1CC2 (stereo partly drawn) [Compound 176, 1-bicyclo[3.2.1]oct-3-yl-3-[(3R)-3-methoxy-1-azabicyclo[2.2.2]oct-3-yl]-1-phenyl-2-propyn-1-ol]	High affinities	–
CO[C@]1(C#C[C@](O)(c2ccccc2)C2CCCCCC2)CN2CCC1CC2 [Compound 117, (1R)-1-cycloheptyl-3-[(3R)-3-methoxy-1-azabicyclo[2.2.2]oct-3-yl]-1-phenyl-2-propyn-1-ol]	High affinities	–
CO[C@]1(C#C[C@](O)(c2ccccc2)C2CCCCCC2)C[N+]2(C)CCC1CC2.[I-] [Compound 119, (3R)-3-[(3R)-3-cycloheptyl-3-hydroxy-3-phenyl-1-propynyl]-3-methoxy-1-methyl-1-azoniabicyclo[2.2.2]octane iodide]	High affinities	–
CO[C@]1(C#CC(O)(c2ccc(F)cc2)c2cccnc2F)CN2CCC1CC2 (stereo partly drawn) [Compound 141, 1-(4-fluorophenyl)-1-(2-fluoro-3-pyridinyl)-3-[(3R)-3-methoxy-1-azabicyclo[2.2.2]oct-3-yl]-2-propyn-1-ol]	High affinities	–
CO[C@]1(C#CC(O)(c2ccccc2)C2CCCCCCC2)CN2CCC1CC2 (stereo partly drawn) [Compound 89, 1-cyclooctyl-3-[(3R)-3-methoxy-1-azabicyclo[2.2.2]oct-3-yl]-1-phenyl-2-propyn-1-ol]	High affinities	–
CO[C@]1(C#CC(O)(CC2CCCC2)c2cccs2)CN2CCC1CC2 (stereo partly drawn) [Compound 188, 1-cyclopentyl-4-[(3R)-3-methoxy-1-azabicyclo[2.2.2]oct-3-yl]-2-(2-thienyl)-3-butyn-2-ol]	High affinities	–
CO[C@]1(C#CC(O)(c2ccccc2)C2CCSCC2)CN2CCC1CC2 (stereo partly drawn) [Compound 173, 3-[(3R)-3-methoxy-1-azabicyclo[2.2.2]oct-3-yl]-1-phenyl-1-tetrahydro-2H-thiopyran-4-yl-2-propyn-1-ol]	High affinities	–
CO[C@]1(C#CC(O)(c2ccccc2)C2CSCCSC2)CN2CCC1CC2 (stereo partly drawn) [Compound 172, 1-(1,4-dithiepan-6-yl)-3-[(3R)-3-methoxy-1-azabicyclo[2.2.2]oct-3-yl]-1-phenyl-2-propyn-1-ol]	High affinities	–
C=CCCC(O)(C#C[C@@]1(OC)CN2CCC1CC2)c1ccccc1 (stereo partly drawn) [Compound 169, 1-[(3R)-3-methoxy-1-azabicyclo[2.2.2]oct-3-yl]-3-phenyl-6-hepten-1-yn-3-ol]	High affinities	–
COC1(C#CC(C#N)(c2ccccc2)c2ccccc2)CN2CCC1CC2 (racemic) [Compound 64, 4-(3-methoxy-1-azabicyclo[2.2.2]oct-3-yl)-2,2-diphenyl-3-butynenitrile]	High affinities	–
CO[C@]1(C#CC(O)(c2ccccc2)C2CCSCC2)CN2CCC1CC2 (stereo partly drawn) [Compound 174, 3-[(3R)-3-methoxy-1-azabicyclo[2.2.2]oct-3-yl]-1-phenyl-1-tetrahydro-2H-thiopyran-4-yl-2-propyn-1-ol]	High affinities	–
CO[C@]1(C#CC(O)(c2cccnc2F)C2CCCCCC2)CN2CCC1CC2 (stereo partly drawn) [Compound 124, 1-cycloheptyl-1-(2-fluoro-3-pyridinyl)-3-[(3R)-3-methoxy-1-azabicyclo[2.2.2]oct-3-yl]-2-propyn-1-ol]	High affinities	–
CO[C@]1(C#CC(O)(c2ccccc2)c2cccc(C)c2)CN2CCC1CC2 (stereo partly drawn) [Compound 72, 3-[(3R)-3-methoxy-1-azabicyclo[2.2.2]oct-3-yl]-1-(3-methylphenyl)-1-phenylprop-2-yn-1-ol]	High affinities	–
CCC(CC)C(O)(C#C[C@@]1(OC)CN2CCC1CC2)c1ccccc1 (stereo partly drawn) [Compound 168, 4-ethyl-1-[(3R)-3-methoxy-1-azabicyclo[2.2.2]oct-3-yl]-3-phenyl-1-hexyn-3-ol]	High affinities	–
OC(C#CC1CN2CCC1CC2)(c1ccccc1)c1ccccc1 (stereo not drawn) [Alpha-(1-azabicyclo[2.2.2]oct-3-ylethynyl)-alpha-phenyl benzenemethanol]	–	marked muscarinic anticholinergic activity
CO[C@]1(C#CC(O)(c2ccccc2)C2CC3CCC(C2)S3)CN2CCC1CC2 (stereo partly drawn) [Compound 177, 3-[(3R)-3-methoxy-1-azabicyclo[2.2.2]oct-3-yl]-1-phenyl-1-(8-thiabicyclo[3.2.1]oct-3-yl)-2-propyn-1-ol]	High affinities	–

SMILES	affinity (in words) [1]	muscarinic anticholinergic activity (muscarinic)
CO[C@]1(C#CC(O)(CC(C)(C)C)c2cccs2)CN2CCC1CC2 (stereo partly drawn) [Compound 185, 1-[(3R)-3-methoxy-1-azabicyclo[2.2.2]oct-3-yl]-5,5-dimethyl-3-(2-thienyl)-1-hexyn-3-ol]	High affinities	–
CO[C@]1(C#CC(F)(c2ccccc2)C2CCCCC2)CN2CCC1CC2 (stereo partly drawn) [Compound 113, (3R)-3-(3-cyclohexyl-3-fluoro-3-phenyl-1-propynyl)-3-methoxy-1-azabicyclo[2.2.2]octane]	High affinities	–
CO[C@]1(C#CC(O)(c2ccccc2)C2CCCCCC2)CN2CCC1CC2 (stereo partly drawn) [Compound 116, 1-cycloheptyl-3-[(3R)-3-methoxy-1-azabicyclo[2.2.2]oct-3-yl]-1-phenyl-2-propyn-1-ol]	High affinities	–
COC1(C#CC(O)(c2ccccc2)C2CC3C=CC2C3)CN2CCC1CC2 (stereo not drawn) [Compound 166, 1-bicyclo[2.2.1]hept-5-en-2-yl-3-(3-methoxy-1-azabicyclo[2.2.2]oct-3-yl)-1-phenyl-2-propyn-1-ol]	High affinities	–
CO[C@]1(C#CC(O)(c2ccccc2)C2CCC=CCC2)CN2CCC1CC2 (stereo partly drawn) [Compound 126, 1-(4-cyclohepten-1-yl)-3-[(3R)-3-methoxy-1-azabicyclo[2.2.2]oct-3-yl]-1-phenyl-2-propyn-1-ol]	High affinities	–
CO[C@]1(C#CC(O)(c2cccnc2)C2CCCCCC2)CN2CCC1CC2 (stereo partly drawn) [Compound 122, 1-cycloheptyl-3-[(3R)-3-methoxy-1-azabicyclo[2.2.2]oct-3-yl]-1-(3-pyridinyl)-2-propyn-1-ol]	High affinities	–
CO[C@]1(C#CC(O)(c2ccccc2)C23CC4CC(CC(C4)C2)C3)CN2CCC1CC2 (stereo partly drawn) [Compound 162, 1-(1-adamantyl)-3-[(3R)-3-methoxy-1-azabicyclo[2.2.2]oct-3-yl]-1-phenyl-2-propyn-1-ol]	High affinities	–
CO[C@]1(C#CC(O)(c2ccccc2)c2ccc3c(c2)CCC3)CN2CCC1CC2 (stereo partly drawn) [Compound 80, 1-(2,3-dihydro-1H-inden-5-yl)-3-[(3R)-3-methoxy-1-azabicyclo[2.2.2]oct-3-yl]-1-phenyl-2-propyn-1-ol]	High affinities	–
CO[C@]1(C#CC(O)(c2ccc(F)cc2)c2ccc(F)nc2)CN2CCC1CC2 (stereo partly drawn) [Compound 139, 1-(4-fluorophenyl)-1-(6-fluoro-3-pyridinyl)-3-[(3R)-3-methoxy-1-azabicyclo[2.2.2]oct-3-yl]-2-propyn-1-ol]	High affinities	–
CO[C@]1(C#C[C@@](O)(c2ccccc2)C2CCCCCC2)CN2CCC1CC2 [Compound 118, (1S)-1-cycloheptyl-3-[(3R)-3-methoxy-1-azabicyclo[2.2.2]oct-3-yl]-1-phenyl-2-propyn-1-ol]	High affinities	–
CO[C@]1(C#CC(O)(c2cccs2)C2CCCCCC2)CN2CCC1CC2 (stereo partly drawn) [Compound 123, 1-cycloheptyl-3-[(3R)-3-methoxy-1-azabicyclo[2.2.2]oct-3-yl]-1-(2-thienyl)-2-propyn-1-ol]	High affinities	–
CO[C@]1(C#CC(O)(c2cccs2)C2CCCCC2)CN2CCC1CC2 (stereo partly drawn) [Compound 115, 1-cyclohexyl-3-[(3R)-3-methoxy-1-azabicyclo[2.2.2]oct-3-yl]-1-(2-thienyl)-2-propyn-1-ol]	High affinities	–
CO[C@]1(C#CC(O)(c2ccccn2)c2ccc(Cl)s2)CN2CCC1CC2 (stereo partly drawn) [Compound 190, 1-(5-chloro-2-thienyl)-3-[(3R)-3-methoxy-1-azabicyclo[2.2.2]oct-3-yl]-1-(2-pyridinyl)-2-propyn-1-ol]	High affinities	–
OC(C#CC1(F)CN2CCC1CC2)(c1ccccc1)C1CCCCC1 (stereo not drawn) [Compound 111, 1-cyclohexyl-3-(3-fluoro-1-azabicyclo[2.2.2]oct-3-yl)-1-phenylprop-2-yn-1-ol]	High affinities	–
CO[C@]1(C#CC(O)(c2ccccc2)C2CCCCCCC2)CN2CCC1CC2 (stereo partly drawn) [Compound 91, 1-cyclooctyl-3-[(3R)-3-methoxy-1-azabicyclo[2.2.2]oct-3-yl]-1-phenyl-2-propyn-1-ol]	High affinities	–
CO[C@]1(C#CC(O)(c2cccs2)c2cccs2)C[N+]2(C)CCC1CC2.[I-] [Compound 155, (3R)-3-[3-hydroxy-3,3-di(2-thienyl)-1-propynyl]-3-methoxy-1-methyl-1-azoniabicyclo[2.2.2]octane iodide]	High affinities	–
